Results as given in ChEMBL document CHEMBL3045187, “Chemical weed control in seedbed sown onion (Allium cepa L.)” (Crop Prot, 2006).

Tests used:
Cyperus rotundus [1] = assay: Herbicidal activity against Cyperus rotundus assessed as total fresh weight at 2.5 kg/ha applied as spray before seed sowing (reference value: 23.6 MT/ha); assay type: functional
Chenopodiastrum murale [2] = assay: Herbicidal activity against Chenopodium murale assessed as total fresh weight at 2.5 kg/ha applied as spray before seed sowing (reference value: 23.6 MT/ha); assay type: functional
Malva sylvestris [3] = assay: Herbicidal activity against Malva sylvestris assessed as total fresh weight at 2.5 kg/ha applied as spray before seed sowing (reference value: 23.6 MT/ha); assay type: functional
Cyperus rotundus [4] = assay: Herbicidal activity against Cyperus rotundus assessed as total dry weight at 2.5 kg/ha applied as spray before seed sowing (reference value: 4.1 MT/ha); assay type: functional
Malva sylvestris [5] = assay: Herbicidal activity against Malva sylvestris assessed as total dry weight at 2.5 kg/ha applied as spray before seed sowing (reference value: 4.1 MT/ha); assay type: functional
Chenopodiastrum murale [6] = assay: Herbicidal activity against Chenopodium murale assessed as total dry weight at 2.5 kg/ha applied as spray before seed sowing (reference value: 4.1 MT/ha); assay type: functional
Allium cepa [7] = assay: Phytotoxicity in Allium cepa (onion) seedling assessed as total fresh weight at 2.5 kg/ha applied as spray before seed sowing (reference value: 7.71 MT/ha); assay type: organism-based; settings: in vivo, other
Cyperus rotundus [8] = assay: Herbicidal activity against Cyperus rotundus assessed as total fresh weight at 1.5 kg/ha applied as spray before seed sowing (reference value: 23.6 MT/ha); assay type: functional; settings: pooled result: one value given for 3 cell lines, strains, targets or settings
Cyperus rotundus [9] = assay: Herbicidal activity against Cyperus rotundus assessed as total dry weight at 1.5 kg/ha applied as spray before seed sowing (reference value: 4.1 MT/ha); assay type: functional; settings: pooled result: one value given for 3 cell lines, strains, targets or settings
Allium cepa [10] = assay: Phytotoxicity in Allium cepa (onion) seedling assessed as total fresh weight at 1.5 kg/ha applied as spray before seed sowing (reference value: 7.71 MT/ha); assay type: organism-based; settings: in vivo, other
Malva sylvestris [11] = assay: Herbicidal activity against Malva sylvestris assessed as total dry weight at 0.225 kg/ha applied as spray during post-emergence (reference value: 4.1 MT/ha); assay type: functional
Cyperus rotundus [12] = assay: Herbicidal activity against Cyperus rotundus assessed as total dry weight at 0.225 kg/ha applied as spray during post-emergence (reference value: 4.1 MT/ha); assay type: functional
Chenopodiastrum murale [13] = assay: Herbicidal activity against Chenopodium murale assessed as total dry weight at 0.225 kg/ha applied as spray during postemergence (reference value: 4.1 MT/ha); assay type: functional
Cyperus rotundus [14] = assay: Herbicidal activity against Cyperus rotundus assessed as total fresh weight at 0.225 kg/ha applied as spray during post-emergence (reference value: 23.6 MT/ha); assay type: functional
Malva sylvestris [15] = assay: Herbicidal activity against Malva sylvestris assessed as total fresh weight at 0.225 kg/ha applied as spray during post-emergence (reference value: 23.6 MT/ha); assay type: functional
Chenopodiastrum murale [16] = assay: Herbicidal activity against Chenopodium murale assessed as total fresh weight at 0.225 kg/ha applied as spray during postemergence (reference value: 23.6 MT/ha); assay type: functional
Allium cepa [17] = assay: Phytotoxicity in Allium cepa (onion) seedling assessed as total fresh weight at 0.225 kg/ha applied as spray during post-emergence (reference value: 7.71 MT/ha); assay type: organism-based; settings: in vivo, other
Cyperus rotundus [18] = assay: Herbicidal activity against Cyperus rotundus assessed as total dry weight at 0.86 kg/ha applied as spray before seed sowing (reference value: 4.1 MT/ha); assay type: functional
Malva sylvestris [19] = assay: Herbicidal activity against Malva sylvestris assessed as total dry weight at 0.86 kg/ha applied as spray before seed sowing (reference value: 4.1 MT/ha); assay type: functional
Chenopodiastrum murale [20] = assay: Herbicidal activity against Chenopodium murale assessed as total dry weight at 0.86 kg/ha applied as spray before seed sowing (reference value: 4.1 MT/ha); assay type: functional
Malva sylvestris [21] = assay: Herbicidal activity against Malva sylvestris assessed as total fresh weight at 0.86 kg/ha applied as spray before seed sowing (reference value: 23.6 MT/ha); assay type: functional
Cyperus rotundus [22] = assay: Herbicidal activity against Cyperus rotundus assessed as total fresh weight at 0.86 kg/ha applied as spray before seed sowing (reference value: 23.6 MT/ha); assay type: functional
Chenopodiastrum murale [23] = assay: Herbicidal activity against Chenopodium murale assessed as total fresh weight at 0.86 kg/ha applied as spray before seed sowing (reference value: 23.6 MT/ha); assay type: functional
Allium cepa [24] = assay: Phytotoxicity in Allium cepa (onion) seedling assessed as total fresh weight at 0.86 kg/ha applied as spray before seed sowing (reference value: 7.71 MT/ha); assay type: organism-based; settings: in vivo, other

## CSc1nc(NC(C)C)nc(NC(C)C)n1 [PROMETRYN]
Cyperus rotundus [1]
  Activity: 19.8 MT/ha
Chenopodiastrum murale [2]
  Activity: 19.8 MT/ha
Malva sylvestris [3]
  Activity: 19.8 MT/ha
Cyperus rotundus [4]
  Activity: 3.81 MT/ha
Malva sylvestris [5]
  Activity: 3.81 MT/ha
Chenopodiastrum murale [6]
  Activity: 3.81 MT/ha
Allium cepa [7]
  Activity: 3.67 MT/ha

## C#CC(C)(C)NC(=O)c1cc(Cl)cc(Cl)c1 [PRONAMIDE]
Cyperus rotundus [8]
  Activity: 20.5 MT/ha
Cyperus rotundus [9]
  Activity: 3.61 MT/ha
Allium cepa [10]
  Activity: 6.67 MT/ha

## C[C@@H](Oc1ccc(Oc2ccc(C(F)(F)F)cn2)cc1)C(=O)O [FLUAZIFOP-P]
Malva sylvestris [11]
  Activity: 2.9 MT/ha
Cyperus rotundus [12]
  Activity: 2.9 MT/ha
Chenopodiastrum murale [13]
  Activity: 2.9 MT/ha
Cyperus rotundus [14]
  Activity: 15.6 MT/ha
Malva sylvestris [15]
  Activity: 15.6 MT/ha
Chenopodiastrum murale [16]
  Activity: 15.6 MT/ha
Allium cepa [17]
  Activity: 9.18 MT/ha

## CCCN(CCC)c1c([N+](=O)[O-])cc(C(F)(F)F)cc1[N+](=O)[O-] [TRIFLURALIN]
Cyperus rotundus [18]
  Activity: 2.69 MT/ha
Malva sylvestris [19]
  Activity: 2.69 MT/ha
Chenopodiastrum murale [20]
  Activity: 2.69 MT/ha
Malva sylvestris [21]
  Activity: 14.8 MT/ha
Cyperus rotundus [22]
  Activity: 14.8 MT/ha
Chenopodiastrum murale [23]
  Activity: 14.8 MT/ha
Allium cepa [24]
  Activity: 7.04 MT/ha
